Read-outs that look alike come from different tables or passages of the source.
Experiments:
Type in all cases: binding
[1] = biological target: T1, HeLa cell extract proteins (Homo sapiens, UniProt P13727)
T1 construct: endogenous in cells; host or cells: HeLa cell extract
T1 sequence (P13727 106-222): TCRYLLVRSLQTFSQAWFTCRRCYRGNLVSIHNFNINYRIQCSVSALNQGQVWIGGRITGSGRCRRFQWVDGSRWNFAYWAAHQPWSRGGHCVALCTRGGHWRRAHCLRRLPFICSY

[2] = biological target: T2, HeLa cell extract proteins (Homo sapiens, UniProt Q12904)
T2 construct: endogenous in cells; host or cells: HeLa cell extract
T2 sequence (Q12904 1-312): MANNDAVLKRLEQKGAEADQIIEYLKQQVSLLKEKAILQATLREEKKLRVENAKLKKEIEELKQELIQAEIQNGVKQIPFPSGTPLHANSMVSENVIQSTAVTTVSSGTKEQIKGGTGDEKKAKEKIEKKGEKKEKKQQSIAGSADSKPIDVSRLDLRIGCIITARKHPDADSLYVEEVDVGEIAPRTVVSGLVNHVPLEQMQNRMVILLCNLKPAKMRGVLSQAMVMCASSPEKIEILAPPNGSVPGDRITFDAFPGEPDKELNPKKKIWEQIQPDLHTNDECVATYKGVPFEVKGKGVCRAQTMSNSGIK

[3] = biological target: T3, HeLa cell extract proteins (Homo sapiens, UniProt Q93008)
T3 construct: endogenous in cells; host or cells: HeLa cell extract

[4] = biological target: T4, HeLa cell extract proteins (Homo sapiens, UniProt Q9UPU5)
T4 construct: endogenous in cells; host or cells: HeLa cell extract
T4 sequence (Q9UPU5 whole entry): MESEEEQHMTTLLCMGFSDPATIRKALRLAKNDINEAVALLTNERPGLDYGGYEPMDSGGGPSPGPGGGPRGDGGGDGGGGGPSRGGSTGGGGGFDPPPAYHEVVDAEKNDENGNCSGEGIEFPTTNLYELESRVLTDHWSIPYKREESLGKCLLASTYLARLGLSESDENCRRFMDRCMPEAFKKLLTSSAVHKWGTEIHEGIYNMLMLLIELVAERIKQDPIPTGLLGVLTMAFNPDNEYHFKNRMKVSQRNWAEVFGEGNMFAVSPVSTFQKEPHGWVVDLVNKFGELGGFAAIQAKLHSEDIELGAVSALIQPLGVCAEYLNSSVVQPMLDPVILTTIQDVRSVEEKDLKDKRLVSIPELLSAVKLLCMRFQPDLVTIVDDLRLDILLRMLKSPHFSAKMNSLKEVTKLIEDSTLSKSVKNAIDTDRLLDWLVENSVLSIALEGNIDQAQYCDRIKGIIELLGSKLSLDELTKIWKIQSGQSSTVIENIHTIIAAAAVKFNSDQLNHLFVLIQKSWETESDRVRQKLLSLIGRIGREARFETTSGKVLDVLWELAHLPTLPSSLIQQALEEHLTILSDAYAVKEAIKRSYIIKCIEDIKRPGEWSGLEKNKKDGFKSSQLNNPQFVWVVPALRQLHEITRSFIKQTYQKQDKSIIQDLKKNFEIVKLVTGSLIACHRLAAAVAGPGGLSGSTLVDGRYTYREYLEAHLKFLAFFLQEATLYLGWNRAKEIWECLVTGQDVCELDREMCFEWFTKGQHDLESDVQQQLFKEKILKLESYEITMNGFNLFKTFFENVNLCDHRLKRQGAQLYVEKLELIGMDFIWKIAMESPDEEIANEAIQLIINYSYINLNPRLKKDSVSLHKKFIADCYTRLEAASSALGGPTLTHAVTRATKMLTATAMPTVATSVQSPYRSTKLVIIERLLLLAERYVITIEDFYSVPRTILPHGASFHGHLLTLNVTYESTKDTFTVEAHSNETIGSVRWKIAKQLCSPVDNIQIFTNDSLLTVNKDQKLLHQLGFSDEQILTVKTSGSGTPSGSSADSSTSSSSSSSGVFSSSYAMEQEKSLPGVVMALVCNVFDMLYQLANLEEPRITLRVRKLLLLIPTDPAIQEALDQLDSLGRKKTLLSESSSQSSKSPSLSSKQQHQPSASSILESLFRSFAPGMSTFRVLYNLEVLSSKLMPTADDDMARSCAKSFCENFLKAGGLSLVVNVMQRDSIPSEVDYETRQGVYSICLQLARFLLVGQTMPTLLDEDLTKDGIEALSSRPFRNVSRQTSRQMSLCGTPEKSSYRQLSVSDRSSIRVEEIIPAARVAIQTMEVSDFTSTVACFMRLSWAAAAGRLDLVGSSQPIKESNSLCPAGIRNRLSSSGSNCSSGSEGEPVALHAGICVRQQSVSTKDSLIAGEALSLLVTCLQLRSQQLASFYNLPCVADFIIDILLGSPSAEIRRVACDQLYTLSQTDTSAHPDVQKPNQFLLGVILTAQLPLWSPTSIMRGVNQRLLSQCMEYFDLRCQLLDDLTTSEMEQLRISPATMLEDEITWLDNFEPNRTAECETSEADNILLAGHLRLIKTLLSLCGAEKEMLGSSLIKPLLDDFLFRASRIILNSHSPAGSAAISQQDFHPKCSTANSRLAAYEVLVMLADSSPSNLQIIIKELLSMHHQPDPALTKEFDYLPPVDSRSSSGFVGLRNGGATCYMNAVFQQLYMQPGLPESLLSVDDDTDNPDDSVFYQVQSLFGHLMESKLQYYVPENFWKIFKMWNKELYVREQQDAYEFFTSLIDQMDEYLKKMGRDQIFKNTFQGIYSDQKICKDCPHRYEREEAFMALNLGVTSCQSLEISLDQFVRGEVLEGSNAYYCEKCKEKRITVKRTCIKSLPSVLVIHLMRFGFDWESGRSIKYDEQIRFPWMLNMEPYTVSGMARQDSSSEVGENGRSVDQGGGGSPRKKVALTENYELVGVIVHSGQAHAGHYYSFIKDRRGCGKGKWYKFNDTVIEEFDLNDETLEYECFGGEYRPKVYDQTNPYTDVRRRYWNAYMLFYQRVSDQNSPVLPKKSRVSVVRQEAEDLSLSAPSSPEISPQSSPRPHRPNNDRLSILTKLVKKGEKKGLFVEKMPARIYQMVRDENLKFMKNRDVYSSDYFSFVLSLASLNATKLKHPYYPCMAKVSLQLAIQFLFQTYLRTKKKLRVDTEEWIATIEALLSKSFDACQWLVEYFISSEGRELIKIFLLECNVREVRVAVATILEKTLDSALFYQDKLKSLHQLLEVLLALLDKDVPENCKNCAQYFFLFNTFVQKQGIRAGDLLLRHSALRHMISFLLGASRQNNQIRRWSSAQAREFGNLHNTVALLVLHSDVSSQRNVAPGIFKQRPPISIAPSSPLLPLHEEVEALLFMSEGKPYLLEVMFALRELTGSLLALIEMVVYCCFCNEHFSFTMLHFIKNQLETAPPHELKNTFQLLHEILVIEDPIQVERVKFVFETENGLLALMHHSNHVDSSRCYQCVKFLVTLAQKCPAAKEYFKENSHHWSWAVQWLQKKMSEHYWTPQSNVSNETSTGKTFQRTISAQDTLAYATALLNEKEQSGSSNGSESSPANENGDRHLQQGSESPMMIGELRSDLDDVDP

[5] = biological target: T5, HeLa cell extract proteins (Homo sapiens, UniProt O00767); details: captured protein SCD; HeLa
T5 construct: endogenous in cells; host or cells: HeLa cell extract
T5 sequence (O00767 1-359): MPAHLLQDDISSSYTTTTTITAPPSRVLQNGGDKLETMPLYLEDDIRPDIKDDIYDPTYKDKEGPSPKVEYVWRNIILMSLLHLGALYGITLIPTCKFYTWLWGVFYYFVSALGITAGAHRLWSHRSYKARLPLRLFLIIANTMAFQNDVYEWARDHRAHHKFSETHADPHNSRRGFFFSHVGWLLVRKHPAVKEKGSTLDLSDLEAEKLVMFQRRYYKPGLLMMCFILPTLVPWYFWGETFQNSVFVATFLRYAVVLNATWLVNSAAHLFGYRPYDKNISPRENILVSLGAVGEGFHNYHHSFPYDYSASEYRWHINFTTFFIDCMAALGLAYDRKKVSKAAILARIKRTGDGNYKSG

[6] = biological target: T6, HeLa cell extract proteins (Homo sapiens, UniProt O43615); details: protein TIMM44; HeLa
T6 construct: endogenous in cells; host or cells: HeLa cell extract
T6 sequence (O43615 1-452): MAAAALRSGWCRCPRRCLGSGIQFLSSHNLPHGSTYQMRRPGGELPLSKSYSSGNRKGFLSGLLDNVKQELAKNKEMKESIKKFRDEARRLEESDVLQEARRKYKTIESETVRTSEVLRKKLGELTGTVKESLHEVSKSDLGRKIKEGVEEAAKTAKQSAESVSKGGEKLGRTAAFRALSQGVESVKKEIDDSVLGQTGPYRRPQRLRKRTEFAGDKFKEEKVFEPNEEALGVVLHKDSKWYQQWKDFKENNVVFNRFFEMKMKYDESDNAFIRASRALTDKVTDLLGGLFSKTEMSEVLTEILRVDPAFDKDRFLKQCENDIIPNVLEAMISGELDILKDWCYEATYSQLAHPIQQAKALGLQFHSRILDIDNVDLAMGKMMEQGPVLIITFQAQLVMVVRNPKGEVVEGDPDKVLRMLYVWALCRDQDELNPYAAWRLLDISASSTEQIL

[7] = biological target: T7, HeLa cell extract proteins (Homo sapiens, UniProt O95433); details: protein AHSA1; HeLa
T7 construct: endogenous in cells; host or cells: HeLa cell extract
T7 sequence (O95433 whole entry): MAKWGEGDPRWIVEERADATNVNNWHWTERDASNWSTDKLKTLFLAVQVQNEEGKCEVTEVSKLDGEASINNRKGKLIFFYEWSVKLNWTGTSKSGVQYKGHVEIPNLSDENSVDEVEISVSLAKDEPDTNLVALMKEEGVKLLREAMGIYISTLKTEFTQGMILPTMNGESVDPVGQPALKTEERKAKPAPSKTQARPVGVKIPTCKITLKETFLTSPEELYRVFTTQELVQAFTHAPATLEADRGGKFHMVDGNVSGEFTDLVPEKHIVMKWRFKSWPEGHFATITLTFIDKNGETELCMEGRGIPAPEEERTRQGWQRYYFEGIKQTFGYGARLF

[8] = biological target: T8, HeLa cell extract proteins (Homo sapiens, UniProt P30048); details: protein PRDX3; HeLa
T8 construct: endogenous in cells; host or cells: HeLa cell extract
T8 sequence (P30048 62-256): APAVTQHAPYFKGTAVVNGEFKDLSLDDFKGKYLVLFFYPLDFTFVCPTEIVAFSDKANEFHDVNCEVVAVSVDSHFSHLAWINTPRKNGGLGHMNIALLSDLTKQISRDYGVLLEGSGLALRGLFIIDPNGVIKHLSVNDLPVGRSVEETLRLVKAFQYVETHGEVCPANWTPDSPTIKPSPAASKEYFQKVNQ

[9] = biological target: T9, HeLa cell extract proteins (Homo sapiens, UniProt P46109); details: HeLa; protein CRKL
T9 construct: endogenous in cells; host or cells: HeLa cell extract
T9 sequence (P46109 whole entry): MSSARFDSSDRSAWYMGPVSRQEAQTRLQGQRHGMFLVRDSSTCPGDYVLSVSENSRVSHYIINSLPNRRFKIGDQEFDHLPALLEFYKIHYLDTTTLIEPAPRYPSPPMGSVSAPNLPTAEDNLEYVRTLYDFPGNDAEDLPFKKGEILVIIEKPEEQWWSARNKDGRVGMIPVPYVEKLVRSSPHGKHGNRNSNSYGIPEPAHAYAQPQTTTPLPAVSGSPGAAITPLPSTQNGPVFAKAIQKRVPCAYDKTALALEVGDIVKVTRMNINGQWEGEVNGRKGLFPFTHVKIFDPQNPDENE

[10] = biological target: T10, HeLa cell extract proteins (Homo sapiens, UniProt P68371); details: captured protein TUBB2C; HeLa
T10 construct: endogenous in cells; host or cells: HeLa cell extract
T10 sequence (P68371 whole entry): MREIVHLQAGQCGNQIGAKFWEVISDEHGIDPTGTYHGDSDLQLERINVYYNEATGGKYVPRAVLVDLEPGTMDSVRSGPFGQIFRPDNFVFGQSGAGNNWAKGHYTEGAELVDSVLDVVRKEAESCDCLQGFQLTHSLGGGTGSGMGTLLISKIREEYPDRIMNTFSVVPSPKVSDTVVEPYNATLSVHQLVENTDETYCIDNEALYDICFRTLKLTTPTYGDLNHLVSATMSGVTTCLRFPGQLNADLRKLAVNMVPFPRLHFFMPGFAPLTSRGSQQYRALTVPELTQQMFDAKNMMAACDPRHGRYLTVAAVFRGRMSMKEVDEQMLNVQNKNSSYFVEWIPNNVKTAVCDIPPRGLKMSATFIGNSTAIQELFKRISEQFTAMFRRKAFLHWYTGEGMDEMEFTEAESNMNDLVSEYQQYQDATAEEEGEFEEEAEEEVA

[11] = biological target: T11, HeLa cell extract proteins (Homo sapiens, UniProt Q06323); details: HeLa; protein PSME1
T11 construct: endogenous in cells; host or cells: HeLa cell extract
T11 sequence (Q06323 whole entry): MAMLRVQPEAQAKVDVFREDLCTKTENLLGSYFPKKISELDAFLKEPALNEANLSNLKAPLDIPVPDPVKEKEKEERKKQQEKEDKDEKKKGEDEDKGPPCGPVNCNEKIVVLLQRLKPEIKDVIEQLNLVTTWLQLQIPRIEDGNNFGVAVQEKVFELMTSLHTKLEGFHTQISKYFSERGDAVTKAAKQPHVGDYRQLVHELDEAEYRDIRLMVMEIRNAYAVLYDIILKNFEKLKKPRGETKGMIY

[12] = biological target: T12, HeLa cell extract proteins (Homo sapiens, UniProt Q13510); details: HeLa; protein ASAH1
T12 construct: endogenous in cells; host or cells: HeLa cell extract
T12 sequence (Q13510 22-395): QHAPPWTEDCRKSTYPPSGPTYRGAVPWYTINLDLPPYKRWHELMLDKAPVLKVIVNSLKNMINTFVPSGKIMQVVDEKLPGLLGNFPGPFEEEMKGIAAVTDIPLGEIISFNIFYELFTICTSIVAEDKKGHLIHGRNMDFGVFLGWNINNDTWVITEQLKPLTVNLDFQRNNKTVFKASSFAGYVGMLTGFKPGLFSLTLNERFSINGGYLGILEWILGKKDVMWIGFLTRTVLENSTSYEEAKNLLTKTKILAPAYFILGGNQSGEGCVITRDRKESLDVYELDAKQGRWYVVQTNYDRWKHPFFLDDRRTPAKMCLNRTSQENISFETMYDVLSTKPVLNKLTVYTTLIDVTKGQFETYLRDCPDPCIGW

[13] = biological target: T13, HeLa cell extract proteins (Homo sapiens, UniProt Q8TDH9); details: protein MUTED; HeLa
T13 construct: endogenous in cells; host or cells: HeLa cell extract
T13 sequence (Q8TDH9 1-187): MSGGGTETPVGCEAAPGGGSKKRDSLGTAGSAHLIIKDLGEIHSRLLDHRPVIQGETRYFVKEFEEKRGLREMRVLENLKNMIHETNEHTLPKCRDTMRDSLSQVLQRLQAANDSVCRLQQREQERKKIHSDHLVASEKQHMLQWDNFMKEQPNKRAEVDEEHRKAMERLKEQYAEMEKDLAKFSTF

Nc1nc2c(c(=O)[nH]1)N(C=O)C(CNc1ccc(C(=O)N[C@@H](CCC(=O)O)C(=O)O)cc1)CN2 (stereo partly shown) [LEU, leucovorin]
fold changes relative to vehicle control ([1]; HeLa, captured protein PRG2): 0.92
fold changes relative to vehicle control ([2]; HeLa, protein SCYE1): 0.85
fold changes relative to vehicle control ([3]; HeLa, captured protein USP9X): 1.13
fold changes relative to vehicle control ([4]; protein USP24, HeLa): 0.85

Nc1nc2[nH]cc(CCc3ccc(C(=O)N[C@@H](CCC(=O)O)C(=O)O)cc3)c2c(=O)[nH]1 [PTX, pemetrexed]
fold changes relative to vehicle control [1]: 0.86
fold changes relative to vehicle control [2]: 0.91
fold changes relative to vehicle control [3]: 1.17
fold changes relative to vehicle control [4]: 0.89

CCCCCCOc1ccc(Cc2cnc(N)nc2N)cc1 [compound 1]
fold changes relative to vehicle control [5]: 0.92
fold changes relative to vehicle control [6]: 1.06
fold changes relative to vehicle control [7]: 1.17
fold changes relative to vehicle control [8]: 1.11
fold changes relative to vehicle control [9]: 0.82
fold changes relative to vehicle control [10]: 1.03
fold changes relative to vehicle control [11]: 0.97
fold changes relative to vehicle control [12]: 0.97
fold changes relative to vehicle control [13]: 1.09

CCCCCCOc1cccc(Cc2cnc(N)nc2N)c1 [compound 2]
fold changes relative to vehicle control [5]: 0.91
fold changes relative to vehicle control [6]: 1.29
fold changes relative to vehicle control [7]: 1.63
fold changes relative to vehicle control [8]: 1.52
fold changes relative to vehicle control [9]: 0.96
fold changes relative to vehicle control [10]: 0.94
fold changes relative to vehicle control [11]: 1.35
fold changes relative to vehicle control [12]: 0.71
fold changes relative to vehicle control [13]: 1.65

Nc1nc2cccc(-c3ccccc3)c2n1Cc1ccc(Cl)c(Cl)c1 [compound 3]
fold changes relative to vehicle control [5]: 1
fold changes relative to vehicle control [6]: 1.03
fold changes relative to vehicle control [7]: 1.24
fold changes relative to vehicle control [8]: 0.99
fold changes relative to vehicle control [9]: 1.15
fold changes relative to vehicle control [10]: 1.02
fold changes relative to vehicle control [11]: 1.04
fold changes relative to vehicle control [12]: 0.89
fold changes relative to vehicle control [13]: 0.99

NCCOCCOCC(=O)Nc1nc2ncc(CNc3ccc(C(=O)NC(CCC(=O)O)C(=O)O)cc3)nc2c(=O)[nH]1 (stereo not shown) [compound 6]
fold changes relative to vehicle control ([1]; HeLa, captured protein PRG2): 0.77
fold changes relative to vehicle control ([2]; HeLa, protein SCYE1): 0.99
fold changes relative to vehicle control ([3]; HeLa, captured protein USP9X): 1.31
fold changes relative to vehicle control ([4]; protein USP24, HeLa): 1.01

NCCCNc1ccc(C(=O)NC(CCC(=O)O)C(=O)O)cc1 (stereo not shown) [compound 7]
fold changes relative to vehicle control ([1]; HeLa, captured protein PRG2): 1.01
fold changes relative to vehicle control ([2]; HeLa, protein SCYE1): 0.86
fold changes relative to vehicle control ([3]; HeLa, captured protein USP9X): 1.26
fold changes relative to vehicle control ([4]; protein USP24, HeLa): 0.84

From paper PMC6199744, “Development of Chemical Proteomics for the Folateome and Analysis of the Kinetoplastid Folateome” (ACS Infectious Diseases, 2018)
